Data: patent publication US7033593B2, “Immunogen comprising an HIV envelope protein, a ligand and H2 peptide” (priority 2000, dated 2006)
“Also recorded” adds a separate entry of the source. Like-named read-outs stand apart in the source and are kept apart here. No end group written: not given here.

Legend:
A32-gp120 (89.6 gp120) = A32-gp120 (89.6 gp120) (Human immunodeficiency virus type 1 group M subtype B, UniProt Q73372); settings: DP178 pre-incubated with peptide
Excerpt: FIGS. 31A–31F. […] Data are representative of 3 separate experiments performed. Data presented for C4-V389.6P and C4-V3MN are taken from two separate experiments. (FIG. 31F) Schematic.
The gp120 C4 region is centrally located within the CCR5 binding site in the β20–β21 strands of the gp120 bridging sheet (Wyatt et al, J. Virol. 69:5723–5733 (1995)).

[1] = target: T8-gp120 (HIV 89.6 gp120) (Human immunodeficiency virus type 1 group M subtype B, UniProt Q73372); type: binding; settings: SPR
Sequence of T8-gp120 (HIV 89.6 gp120) (Q73372 32-508): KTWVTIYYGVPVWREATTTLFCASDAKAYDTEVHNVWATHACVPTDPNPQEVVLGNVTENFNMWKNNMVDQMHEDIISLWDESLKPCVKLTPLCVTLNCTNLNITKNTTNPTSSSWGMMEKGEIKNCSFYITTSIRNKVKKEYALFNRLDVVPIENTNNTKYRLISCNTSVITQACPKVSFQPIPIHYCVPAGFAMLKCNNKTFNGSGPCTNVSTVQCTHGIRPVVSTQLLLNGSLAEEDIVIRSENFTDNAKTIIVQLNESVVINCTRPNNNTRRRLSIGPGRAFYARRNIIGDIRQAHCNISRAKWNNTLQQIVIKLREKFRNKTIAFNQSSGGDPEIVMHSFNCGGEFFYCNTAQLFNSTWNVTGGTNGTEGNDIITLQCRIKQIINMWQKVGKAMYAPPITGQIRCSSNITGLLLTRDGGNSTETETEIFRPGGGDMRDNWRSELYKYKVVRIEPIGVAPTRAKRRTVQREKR

[2] = system: T8-gp140 (HIV 89.6 gp140); settings: SPR
Sequence of T8-gp140 (HIV 89.6 gp140) (Q73372 32-508): as above
Sequence of T8-gp140 (HIV 89.6 gp140) (Q73372 509-680): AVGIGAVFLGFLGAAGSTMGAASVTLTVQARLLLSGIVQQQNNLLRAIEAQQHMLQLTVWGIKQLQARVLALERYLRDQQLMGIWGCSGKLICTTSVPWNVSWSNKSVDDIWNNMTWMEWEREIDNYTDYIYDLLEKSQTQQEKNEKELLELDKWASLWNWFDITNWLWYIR
Method: FIG. 14A. […] FIGS. 14B and 14C. […] After stabilization of gp140 capture, either the 19b (anti-gp120 V3) or 2F5 (anti-gp41) antibodies (300 μg/ml) were injected to assess the relative amounts of gp120 and gp41 on both surfaces. FIGS. 14D–14F.
(§1) A blank chip served as an in-line reference surface for subtraction of non-specific binding and bulk responses.
(§2) Surface Plasmon Resonance Biosensor Measurements. SPR biosensor measurements were determined on a BIACORE 3000 (BIACORE Inc., Uppsala, Sweden) instrument. […] A blank in-line reference surface (activated and de-activated for amine coupling) was used to subtract non-specific or bulk responses. Binding of proteins and peptides (biotinylated or free DP178, T649Q26L, DP178-scrambled) was monitored in real-time at 25° C. with a continuous flow of PBS (150 mM NaCl, 0.005% surfactant p20), pH 7.4 at 10–30 μl/min. Analyte (proteins and peptides) were removed and the sensor surfaces were regenerated following each cycle of binding by single or duplicate 5–10 μl pulses of regeneration solution (10 mM glycine-HCl, pH 2.5 or 10 mM NaOH).

[3] = target: sCD4-gp120 (HIV 89.6 gp120) (Human immunodeficiency virus type 1 group M subtype B, UniProt Q73372); type: binding
Sequence of sCD4-gp120 (HIV 89.6 gp120) (Q73372 32-508): as the sequence (Q73372 32-508) above

[4] = system: sCD4-gp140 (HIV 89.6 gp140); assay: SPR binding of HR-2 peptides to sCD4-gp140 complex; settings: SPR
Method: (§3) SPR biosensor measurements were determined on a BIACORE 3000 (BIACORE Inc., Uppsala, Sweden) instrument. […] Binding of proteins and peptides was monitored in real-time at 25° C. and with a continuous flow of PBS, pH 7.4 at […]. Analyte (proteins and peptides) were removed and the sensor surfaces were regenerated following each cycle of binding by single or duplicate […] of regeneration solution (10 mM glycine-HCl, pH 2.5 or 10 mM NaOH).
(§4) All analyses were performed using the non-linear fit method of O'Shannessy et al. (O'Shannessy et al, Anal. Biochem. 205:132–136 (1992)) and the BIAevaluation 3.0 software (BIACORE Inc). Rate and equilibrium constants were derived from curve fitting to the Langmuir equation for a simple bimolecular interaction (A+B=AB).
as §1, §2

HIV-1 Env 89.6 gp120 = HIV-1 Env 89.6 gp120 (Human immunodeficiency virus type 1 group M subtype B, UniProt Q73372); assay: biochemical; type: binding, HIV-1 89.6
Sequence of HIV-1 Env 89.6 gp120 (Q73372 32-508): as above

sCD4 = target: T1, sCD4 (Homo sapiens, UniProt P01730); type: binding; settings: SPR
T1 construct: Soluble CD4 (sCD4) was produced by Progenics, Tarrytown, N.Y; purchased Progenics (provided by the Division of AIDS, NIAID, NIH)

[5] = target: cleaved gp140 oligomers (HIV 89.6) (Human immunodeficiency virus type 1 group M subtype B, UniProt Q73372); assay: biochemical; type: binding
Sequence of cleaved gp140 oligomers (HIV 89.6) (Q73372 32-681): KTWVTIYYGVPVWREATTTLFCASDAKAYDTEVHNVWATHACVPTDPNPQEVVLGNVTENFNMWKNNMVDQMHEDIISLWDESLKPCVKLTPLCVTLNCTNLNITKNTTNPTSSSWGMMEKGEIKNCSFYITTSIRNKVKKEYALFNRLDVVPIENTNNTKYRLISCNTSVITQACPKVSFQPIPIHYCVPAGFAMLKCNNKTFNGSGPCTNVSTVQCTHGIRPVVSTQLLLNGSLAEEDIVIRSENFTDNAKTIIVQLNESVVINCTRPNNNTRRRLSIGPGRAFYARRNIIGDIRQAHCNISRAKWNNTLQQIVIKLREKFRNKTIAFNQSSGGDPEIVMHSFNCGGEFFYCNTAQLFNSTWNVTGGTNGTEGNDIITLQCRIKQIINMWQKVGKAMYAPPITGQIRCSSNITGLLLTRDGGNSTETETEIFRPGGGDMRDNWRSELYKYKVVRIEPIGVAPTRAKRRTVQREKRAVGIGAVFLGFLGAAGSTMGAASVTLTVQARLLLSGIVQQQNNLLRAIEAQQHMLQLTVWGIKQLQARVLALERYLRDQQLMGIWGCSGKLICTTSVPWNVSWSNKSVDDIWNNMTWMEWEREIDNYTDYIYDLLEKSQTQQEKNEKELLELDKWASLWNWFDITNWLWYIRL

[6] = system: CD4-gp140 complex (89.6 gp140 oligomers); settings: on CD4-gp140 complex
Method: FIG. 10C. CD4-gp140 complexes (indicated by arrow) were first formed by injecting soluble 89.6 gp140 oligomers over a CD4-immobilized surface. Then the CCR5 N-terminal peptide (D1) was injected to monitor its binding to CD4-gp140 complexes.
FIG. 10D. An overlay of the binding curves of CCR5 N-terminal peptide, D1, binding to 89.6 gp140 oligomers in the presence and absence of CD4. […] To ensure that all gp140 molecules were bound to CD4, cleaved gp140 proteins were captured on a CD4 immobilized sensor surface (RU=530), and soluble 89.6 gp140 proteins were directly immobilized (RU=3300) on an adjacent flow cell of the same sensor chip.
as §3, §4

[7] = target: sCD4 ligated gp120 in the context of membrane bound envelope; settings: Hoffman et al 2000; read-out: affinity; cited from earlier work
[8] = system: HIV-1 induced syncytia formation; assay: HIV-1 induced syncytia formation; type: cell-based; settings: 50–200 μg/ml

KQIINMWQEVGKAMYACTRPNYNKRKRIHIGPGRAFYTTK [C4-V3MN]
blocking of DP178 binding (in words) (A32-gp120 (89.6 gp120)): strong blocking

KQIINMWQEVGKAMYATRPNNNTRERLSIGPGRAFYARR [C4-V389.6]
blocking of DP178 binding (in words) (A32-gp120 (89.6 gp120)): strong blocking

WMEWDREINNYTSLIHSLIEESQNQLEKNEQELLEL [T649Q26L]
binding to gp120 on T8 mab surface (in words) [1]: neither HR-2 peptide bound
binding to T8-gp140 surface (in words) [2]: no binding
binding to sCD4-gp120 (in words) [3]: specifically induced by sCD4
binding to sCD4-gp140 surface (in words) [4]: much higher binding; also recorded: marked binding

NNLLRAIEAQQHLLQLTVWGIKQLQARILAVERYLKDQ [DP107]
binding to gp120 bound to CD4 or A32 (in words) (HIV-1 Env 89.6 gp120): no binding was observed

89.6 gp120: soluble gp120 envelope protein of HIV 89.6 primary isolate (Clade B)
off-rate (kd) (sCD4; immobilized CD4): 0.00011 s⁻¹
off-rate (sCD4; immobilized sCD4, preliminary studies): 1.1×10^−4 s^1
binding to sCD4 (in words) (sCD4; listed as HIV 89.6 gp120): most stable binding to sCD4
binding to sCD4 (in words) (sCD4; listed as HIV89.6 gp120): bound sCD4 most avidly

TRPNNNTRERLSIGPGRAFYARR [V3]
blocking of DP178 binding (in words) (A32-gp120 (89.6 gp120)): no significant blocking

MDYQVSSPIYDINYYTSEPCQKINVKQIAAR [CCR5-D1]
Kd [5]: 1000 nM
binding to cleaved gp140 (in words) ([5]; absence of CD4): Low levels of constitutive binding
kd (off-rate) ([5]; absence of CD4): 0.01 s⁻¹
ka [6]: 9000 M⁻¹ s⁻¹
kd [6]: 0.00256 s⁻¹
Kd ([6]; read-out: apparent Kd): 280 nM

native CCR5: native CCR5 co-receptor, literature value
Kd [7]: 500000 nM

89.6 gp140: HIV 89.6 gp140 envelope, about 50:50 cleaved and uncleaved
binding to sCD4 (in words) (sCD4): bound sCD4 well

IKQIINMWQKVGKAMYAPPIS [C4]
mean % blocking of DP178 binding to 89.6 gp120 (A32-gp120 (89.6 gp120); n=3): 27%
effect on DP178 inhibition of syncytia formation (in words) [8]: can reverse DP178 inhibition
